Results from patent publication US12593845B2 (priority 2019, dated 2026).

Tests used:
[1] = system: Aspergillus niger; test: Antimicrobial test against Aspergillus niger; assay type: cell-based; settings: 96 h, Vogel medium, 25° C., 4 days in the dark, turbidity at 405 nm, read-out: growth inhibition rate
Procedure: Spores of Aspergillus niger were added to and dispersed in a Vogel medium, and a dihydropyrimidine compound dissolved in dimethyl sulfoxide was added and mixed thereto at 25 ppm. The resulting solution was dispensed onto a 96-well microplate and cultivated in the dark at 25° C. for 4 days.
After the cultivation, the turbidity at a wavelength of 405 nm was measured by a microplate reader and compared with that in the untreated case to determine the growth inhibition of Aspergillus niger (%) was determined.

[2] = system: wheat powdery mildew pathogen (Erysiphe graminis f. sp. tritici); test: Wheat powdery mildew control test; assay type: in vivo; settings: Blumeria graminis, 144 h; 125 ppm drug solution sprayed onto wheat seedlings (Chihoku); lesion area ratio 6 days after inoculation
Procedure: (§1) 5 parts by weight of the dihydropyrimidine compound of the present invention, 93.5 parts by weight of N,N-dimethylformamide, and 1.5 parts by weight of polyoxyethylene sorbitan monolaurate (TWEEN® 20) were mixed and dissolved to obtain an emulsion (I) including 5% of an active ingredient.
(§2) The control value was calculated by the following expression. Control value (%)=100−{lesion area ratio in treated group/lesion area ratio in untreated group}×100 [Expression 1]
Water was added to the emulsion (I) such that the concentration of the dihydropyrimidine compound reached 125 ppm to dissolve the emulsion, and a drug solution was obtained. Subsequently, the drug solution was sprayed onto wheat seedlings (variety: “Chihoku”, leaf stage: 1 to 2) cultivated in seedling pots. After air drying, conidiospores of a wheat powdery mildew pathogen (Erysiphe graminis f. sp. tritici) were sprinkled thereon for inoculation (treated group). As a control, wheat seedlings that were not sprayed with the drug solution were inoculated in the same manner as described above (untreated group). The seedlings were left to stand in a greenhouse at 20° C.
On the 6 days after the inoculation, the leaves of the wheat seedlings were visually observed to determine the lesion area ratio, and the control value was calculated.

[3] = system: apple scab pathogen (Venturia inaequalis); test: Apple scab control test; assay type: in vivo; settings: 336 h, 125 ppm drug solution sprayed onto apple seedlings (Orin), lesion area ratio 2 weeks after inoculation
Procedure: as §1, §2
Water was added to the emulsion (I) such that the concentration of the dihydropyrimidine compound reached 125 ppm to dissolve the emulsion, and a drug solution was obtained. Subsequently, the drug solution was sprayed onto apple seedlings (variety: “Orin”, leaf stage: 3 to 4) cultivated in seedling pots. After air drying, the seedlings were inoculated with conidiospores of an apple scab pathogen (Venturia inaequalis) (treated group). As a control, apple seedlings that were not sprayed with the drug solution were inoculated in the same manner (untreated group). The seedlings were left to stand in a humidified room at 20° C. using a 12 hour light/dark cycle.
On the day 2 weeks after the inoculation, the leaves of the apple seedlings were visually observed to determine the lesion area ratio, and the control value was calculated.

[4] = system: wheat brown rust pathogen (Puccinia recondita); test: Wheat brown rust control test; assay type: in vivo; settings: 288 h, 125 ppm drug solution sprayed onto wheat seedlings (Norin 61), lesion area ratio 12 days after inoculation
Procedure: as §1, §2
Water was added to the emulsion (I) such that the concentration of the dihydropyrimidine compound reached 125 ppm to dissolve the emulsion, and a drug solution was obtained. Subsequently, the drug solution was sprayed onto wheat seedlings (variety: “Norin 61”, leaf stage: 1 to 2) cultivated in seedling pots. After air drying, uredospores of a wheat brown rust pathogen (Puccinia recondita) were sprinkled on wheat seedlings sprayed with the drug solution for inoculation (treated group). As a control, wheat seedlings that were not sprayed with the drug solution were inoculated in the same manner as described above (untreated group). The seedlings were left to stand in a greenhouse at 20° C.
On the 12 days after the inoculation, the leaves of the wheat seedlings were visually observed to determine the lesion area ratio, and the control value was calculated.

[5] = system: wheat powdery mildew pathogen (Erysiphe graminis f. sp. tritici); test: Wheat powdery mildew soil irrigation treatment test; assay type: in vivo; settings: Blumeria graminis, 168 h; soil irrigation with 10 ml of 100 ppm drug solution per pot, wheat (Chihoku); inoculation after 8 to 10 days; lesion area ratio 7 days after inoculation
Procedure: as §1, §2
Pots (5.5 cm×5.5 cm) in which wheat seeds (variety: “Chihoku”) were disseminated were irrigated with 10 ml of a drug solution prepared by adding water to the emulsion (I) so as to have a concentration of the dihydropyrimidine compound of 100 ppm. After 8 to 10 days, conidiospores of a wheat powdery mildew pathogen (Erysiphe graminis f. sp. tritici) were sprinkled thereon for inoculation (treated group). As a control, wheat seedlings that were not treated with the drug were inoculated in the same manner as described above (untreated group). The seedlings were left to stand in a greenhouse at 20° C.
(§3) On the 7 days after the inoculation, the leaves of the wheat seedlings were visually observed to determine the lesion area ratio, and the control value was calculated.

[6] = system: wheat powdery mildew pathogen (Erysiphe graminis f. sp. tritici); test: Wheat powdery mildew seed treatment test; assay type: in vivo; settings: Blumeria graminis, 168 h; seed treatment 100 g/100 kg wheat seeds (Chihoku); inoculation after 8 to 10 days; lesion area ratio 7 days after inoculation
Procedure: as §1, §2
The emulsion (I) was used to treat seeds such that (weight of dihydropyrimidine compound)/(weight of seeds) reached 100 g/100 kg based on the wheat seeds (variety: “Chihoku”). These seeds were disseminated in pots, and after 8 to 10 days, conidiospores of a wheat powdery mildew pathogen (Erysiphe graminis f. sp. tritici) were sprinkled thereon for inoculation (treated group). As a control, wheat seedlings that were not treated with the drug were inoculated in the same manner as described above (untreated group). The seedlings were left to stand in a greenhouse at 20° C.
as §3

SMILES	inhibition at 25 ppm [1] [%]	pest or weed control at 125 ppm [2] [%]	pest or weed control at 125 ppm [3] [%]	pest or weed control at 125 ppm [4] [%]	pest or weed control at 100 ppm [5] [%]	pest or weed control at 100 g/100 kg seed [6] [%]
COc1ccc(F)cc1C(Cn1cc(C=NOC(C)C)c(=O)n(C(C)C(=O)NC(C)C)c1=O)OCCC#N (stereo not shown) [A-14, 2-(3-(2-(2-cyanoethoxy)-2-(5-fluoro-2-methoxyphenyl)ethyl)-5-((isopropoxyimino)methyl)-2,6-dioxo-3,6-dihydropyrimidin-1(2H)-yl)-N-isopropylpropanamide]	≥ 50	≥ 75	≥ 75	≥ 75		
CCCON=Cc1cn(CC(OCCC#N)c2cc(F)ccc2OC)c(=O)n(C(C)C(=O)NC(C)C)c1=O (stereo not shown) [A-11]		≥ 75	≥ 75	≥ 75		
CCCC(=O)N[C@H](Cn1c(=O)c(/C(C)=N/OC(C)C)cn(CC(O)c2ccccc2OC)c1=O)C(C)C (stereo partly shown) [C-95]	≥ 50				≥ 75	≥ 75
COc1ccc(F)cc1C(O)Cn1cc(/C(C)=N/OC(C)C)c(=O)n(C[C@H](C)NC(=O)N(C)C)c1=O (stereo partly shown) [C-179]	≥ 50				≥ 75	≥ 75
CC[C@@H](Cn1c(=O)c(/C(C)=N/OC(C)C)cn(CC(O)c2ccccc2OC)c1=O)NC(=O)C(C)C (stereo partly shown) [C-93]	≥ 50				≥ 75	≥ 75
COc1ccccc1C(O)Cn1cc(/C(C)=N/OC(C)C)c(=O)n(C[C@H](C)NC(=O)C(C)C)c1=O (stereo partly shown) [A-58]	≥ 50	≥ 75	≥ 75		≥ 75	≥ 75
CCO/N=C(\C)c1cn(CC(O)c2cc(F)ccc2OC)c(=O)n(CC(C)(C)C(=O)NC(C)C)c1=O (stereo not shown) [A-25]			≥ 75	≥ 75		
COc1ccc(F)cc1C(O)Cn1cc(/C(C)=N/OC(C)C)c(=O)n(C[C@H](CC(C)C)NC(=O)C(C)C)c1=O (stereo partly shown) [C-199]	≥ 50				≥ 75	≥ 75
COc1ccc(F)cc1C(O)Cn1cc(/C(C)=N/OC(C)C)c(=O)n(C[C@@H](NC(=O)C(C)C)C(C)C)c1=O (stereo partly shown) [C-210]	≥ 50				≥ 75	≥ 75
CCON=Cc1cn(CC(OC)c2cc(F)ccc2OC)c(=O)n(C(C)C(=O)NC(C)C)c1=O (stereo not shown) [A-91]		≥ 75	≥ 75	≥ 75		
C=C1CCN(C(=O)C(C)n2c(=O)c(C=NOC(C)C)cn(CC(O)c3cc(F)ccc3OC)c2=O)CC1 (stereo not shown) [A-70]		≥ 75	≥ 75	≥ 75		
CCON=Cc1cn(CC(OCCC#N)c2cc(F)ccc2OC)c(=O)n(CCNC(=O)C(C)C)c1=O (stereo not shown) [A-17]		≥ 75	≥ 75	≥ 75		
C=C(C)C(=O)N[C@H](Cn1c(=O)c(/C(C)=N/OC(C)C)cn(CC(O)c2cc(F)ccc2OC)c1=O)C(C)C (stereo partly shown) [C-101]	≥ 50				≥ 75	≥ 75
COc1ccc(F)cc1C(O)Cn1cc(/C(C)=N/OC(C)C)c(=O)n(C[C@@H](NC(=O)C(C)C)C(C)(C)C)c1=O (stereo partly shown) [C-148]	≥ 50				≥ 75	≥ 75
COc1ccc(F)cc1C(O)Cn1cc(/C(C)=N/OC(C)C)c(=O)n(C[C@@H](NC(=O)C(C)=O)C(C)C)c1=O (stereo partly shown) [C-73]	≥ 50				≥ 75	≥ 75
CCc1ccccc1C(O)Cn1cc(/C(C)=N/OC(C)C)c(=O)n(C[C@H](C)NC(=O)C(C)C)c1=O (stereo partly shown) [C-197]	≥ 50				≥ 75	≥ 75
CCC(=O)N[C@H](Cn1c(=O)c(/C(C)=N/OC(C)C)cn(CC(O)c2cc(F)ccc2OC)c1=O)C(C)C (stereo partly shown) [C-117]	≥ 50				≥ 75	≥ 75
COc1ccc(F)cc1C(Cn1cc(C=NOCC(F)F)c(=O)n(C(C)C(=O)NC(C)C)c1=O)OCCC#N (stereo not shown) [A-10]		≥ 75	≥ 75	≥ 75		
COc1ccc(F)cc1C(O)Cn1cc(/C(C)=N/OC(C)C)c(=O)n(C[C@@H](NC(C)=O)C(C)C)c1=O (stereo partly shown) [C-207]	≥ 50				≥ 75	≥ 75
COc1ccccc1C(O)Cn1cc(/C(C)=N/OC(C)C)c(=O)n(C[C@@H](NC(=O)C2CC2)C(C)C)c1=O (stereo partly shown) [C-99]	≥ 50				≥ 75	≥ 75
CCO/N=C(\C)c1cn(CC(O)c2cc(F)ccc2OC)c(=O)n(C[C@@H](NC(=O)C(C)C)C(C)C)c1=O (stereo partly shown) [C-107]	≥ 50				≥ 75	≥ 75
CCO/N=C(\C)c1cn(CC(O)c2cc(F)ccc2OC)c(=O)n(C2CCCC2NC(=O)C(C)C)c1=O (stereo not shown) [A-48]		≥ 75	≥ 75	≥ 75		
COc1ccc(F)cc1C(O)Cn1cc(/C(C)=N/OC(C)C)c(=O)n(CC(C)(C)C(=O)NC(C)C)c1=O (stereo not shown) [A-2]		≥ 75	≥ 75	≥ 75		
COc1ccccc1C(O)Cn1cc(/C(C)=N/OC(C)C)c(=O)n(C[C@@H](NC(=O)C(C)C)C(C)C)c1=O (stereo partly shown) [C-170]	≥ 50				≥ 75	≥ 75
COCC(=O)N[C@H](Cn1c(=O)c(/C(C)=N/OC(C)C)cn(CC(O)c2cc(F)ccc2OC)c1=O)C(C)C (stereo partly shown) [C-83]	≥ 50				≥ 75	≥ 75
C=Cc1ccccc1C(O)Cn1cc(/C(C)=N/OC(C)C)c(=O)n(C[C@H](C)NC(=O)C(C)C)c1=O (stereo partly shown) [C-160]	≥ 50				≥ 75	≥ 75
COc1ccc(F)cc1C(Cn1cc(C=NOC(C)C)c(=O)n(C(C)C(=O)N2CCCCC2)c1=O)OCCC#N (stereo not shown) [A-69]		≥ 75		≥ 75		
COc1ccc(F)cc1C(Cn1cc(/C(C)=N/OC(C)C)c(=O)n(CCN(C)C(=O)C(C)C)c1=O)OC (stereo not shown) [A-99]		≥ 75	≥ 75	≥ 75		
CC[C@@H](Cn1c(=O)c(/C(C)=N/OC(C)C)cn(CC(O)c2cc(F)ccc2OC)c1=O)NC(=O)C(C)C (stereo partly shown) [C-154]	≥ 50				≥ 75	≥ 75
